{
  "source": "patent US9000017B2",
  "about": "“Combinations of imazalil and silver compounds” (Janssen Pharmaceutica NV, priority 2006, dated 2015)",
  "assay_in_all_cases": "Poison Plate Assay",
  "format_in_all_cases": "cell-based",
  "key": {"Penicillium purpurogenum": {"test_system": "Penicillium purpurogenum", "settings": "Penicillium purpurogenum CBS 170.60, ppm total active ingredient, PDA, 22° C., two weeks", "experimental": "(§1) [table] […] [table] MIC values (minimum inhibitory concentration in ppm total active ingredient) were noted and synergy was calculated using the Synergy Index method described by Kull et al. (Kull, […], and R. L. Mayer (1961) “Mixtures of quaternary ammonium compounds and long-chain fatty acids as antifungal agents” Applied Microbiology 9: 538-541; also see Zwart Voorspuij, A. J., and […] (1957) “Some aspects of the notions additivity, synergism and antagonism in the simultaneous activity of two antibacterial agents in vitro” Arch. intern. […] Steinberg, D. C. […] Petrocci, H. A. Green, and J. J. Merianos (1977) “Antimicrobial composition” U.S. Pat. […] MIC), • Qa is the concentration of compound A in ppm, in the mixture, which produced an end point (e.g. MIC), • QB is the concentration of compound B in ppm, acting alone, which produced an end point (e.g. MIC), • Qb is the concentration of compound B in ppm, in the mixture, which produced an end point (e.g. MIC). […] When the SI is equal to 1.0, additivity is indicated."}, "Rhodoturula rubra": {"test_system": "Rhodoturula rubra", "settings": "336 h, Rhodoturula rubra B 52183, ppm total active ingredient, PDA, 22° C., two weeks, read-out: MIC-values in ppm (minimum inhibitory concentration)", "experimental": "as §1"}, "Pseudomonas aeruginosa": {"test_system": "Pseudomonas aeruginosa", "settings": "Pseudomonas aeruginosa NCIB 8295, ppm total active ingredient, Tryptose Agar, 27° C., one week", "experimental": "as §1"}, "[1]": {"settings": "imazalil with silver perchlorate, label = % imazalil + % silver perchlorate"}},
  "note": "Where two headings read alike, the source gives them in different places.",
  "data": [
    {"smiles": "C=CCOC(Cn1ccnc1)c1ccc(Cl)cc1Cl", "note": "(stereo not drawn) [imazalil]", "values": [
      {"measurement": "MIC", "setting": "Penicillium purpurogenum; CBS170, 336 h, imazalil with silver nitrate, label = % imazalil + % silver nitrate, read-out: MIC-values in ppm (minimum inhibitory concentration)", "result": 158, "unit": "µg/mL"},
      {"measurement": "MIC-values in ppm (minimum inhibitory concentration)", "setting": "Penicillium purpurogenum; [1]", "result": 158, "unit": "ppm"},
      {"measurement": "MIC", "setting": "Rhodoturula rubra; imazalil with silver nitrate, label = % imazalil + % silver nitrate", "result": 158, "unit": "µg/mL"},
      {"measurement": "MIC", "setting": "Rhodoturula rubra; [1]", "result": 119, "unit": "µg/mL"},
      {"measurement": "MIC", "setting": "Pseudomonas aeruginosa; NCIB8295, 168 h, imazalil with silver nitrate, label = % imazalil + % silver nitrate, read-out: MIC-values in ppm (minimum inhibitory concentration)", "result": 667, "unit": "µg/mL"},
      {"measurement": "MIC-values in ppm (minimum inhibitory concentration)", "setting": "Pseudomonas aeruginosa; [1]", "result": 667, "unit": "ppm"}
    ]}
  ]
}
